Results from patent US8268893B2, “Use of dapsone as a neuroprotector in cerebral infarction” (Universidad Autonoma Metropolitana, priority 2003, dated 2012).
Values joined by “and” are separate entries in the source; they are usually repeats but may differ in a detail not shown here. Equal entries are not always repeated.

Experiments:
[1] = tested on: brain stroke model produced by occlusion of the middle cerebral artery; assay: Neurological functional scale in rats after permanent occlusion of the middle cerebral artery; format: in vivo, rat
Description: Dapsone was evaluated as neuroprotector in the brain stroke model produced by occlusion of the middle cerebral artery. The drug was suspended in a suitable vehicle.
3 groups of 5 animals each were treated with: Saline isotonic solution (551, control group), Dapsone (12.5 mg/kg) and Dapsone (9.375 mg/kg) injected by intraperitoneal route, 30 minutes after the occlusion of the middle cerebral artery, as described below.
The permanent selective brain ischemic was produced in the animals through introducing a suture thread intraluminal through the carotid artery. All animals received continuous anesthesia during the surgical procedure with halotane 1.5%, through a face mask. […]
During the 96 hours after the ischemic procedure, the animals were neurologically evaluated using a functional scale, each 24 hours.
For the neurological scale and percentage of the lesion volume in rats, the statistical significance was determined with the Kruskal-Wallis test, followed by the U test of MannWhitney.
The results of the neurological evaluation in rats are shown in FIG. 1, where the scores of the neurological test as a function of time can be observed, after producing the stroke in the rats. The results are expressed as the average of 4 independent experiments. […]

[2] = tested on: brain stroke model produced by occlusion of the middle cerebral artery; assay: Ischemic lesion volume (histology) in rats 96 hours after occlusion of the middle cerebral artery; format: in vivo, rat; conditions: for reduction of ischemic lesion volume in comparison with the control group: 96 hours
Description: Dapsone was evaluated as neuroprotector in the brain stroke model produced by occlusion of the middle cerebral artery. The drug was suspended in a suitable vehicle. 3 groups of 5 animals each were treated with: Saline isotonic solution (551, control group), Dapsone (12.5 mg/kg) and Dapsone (9.375 mg/kg) injected by intraperitoneal route, 30 minutes after the occlusion of the middle cerebral artery, as described below. The permanent selective brain ischemic was produced in the animals through introducing a suture thread intraluminal through the carotid artery. All animals received continuous anesthesia during the surgical procedure with halotane 1.5%, through a face mask. Animals were placed in dorsal decubitus position, fixed and shaved in the anterior cervical region to make an incision in the middle line from the sternum towards the region of the sternohiodeous muscle, to its side rim, identifying in this side the middle rim of the sternocleidomastoideus and the superficial cervical aponeurosis in its deep leaf, same that was cut to leave exposed the common carotid blow and inside the caudal belly of the digastric. A cutting dissection of the common carotid was performed, until the hypoglose loop. The carotid bifurcation was identified, external carotid and its occipital and thyroid branches, the two latter were joined with mono-filament of 8-0 as well as with electrocoagulation for its later cut. The internal carotid was dissected in a length of approximately 5 mm and at that time the pterigo-palatine artery was identified. A microchip was placed or it was joined with mono-filament 6-0. Once the flux was stopped through these artery affluent, the mono-filament nylon 3-0 was introduced towards the internal carotid artery, through the stub of the external carotid artery, for a length of 17 mm as of the bifurcation. The wound was closed, and the animal was left to recover, with water and food ad libitum. In all cases, ischemia was verified by macroscopic observation and for the position of the thread. At the end of the 96 hours of observation, animals were sacrificed with an overdose of sodium pentobarbital by intraperitoneal route, and their brains were extracted by craniectomy. Once extracted, the brains were fixed with anhydrous alcohol during two weeks. The usual histological process was performed, as well as sections of 10 μm, storing a section each 200 μm. […] The area of each tissue section was determined using a digital analysis system and a photographic amplifier. […] Each section was assessed for 3 determinations: A) total area, including ventriculus B) Ventricular area C) Ischemic area, according to the pathologist's review. […] The results are expressed as the average+/-standard error of 4 independent experiments.

[3] = tested on: patients with acute brain stroke for thrombo-embolism; assay: Randomized, double-blind, placebo-controlled clinical trial in patients with acute brain stroke, NIH scale; format: in vivo, human
Description: This study evaluated the neuroprotector effect of dapsone in patients that, having suffered an acute brain stroke for thrombo-embolism, were admitted to the Emergency Services of the National Institute of Neurology and Neurosurgery “Manuel Velasco Suarez”. Dapsone was administered in a single dose of 200 mg in suspension, orally. […] Dapsone was administered blinded to 15 patients, while other 15 patients were administered with an anti-acid suspension, as a placebo medication. Patients were randomly allocated into one of the treatment groups, using random numbers, generated by a pocket calculator. Both medications were administered during the first twelve hours after the brain stroke. As result of these procedures, the clinical trial was randomized, double-blind and placebo-controlled. The evaluation of clinical signs and symptoms was performed in blind by an expert neurologist, with the NIH scale, that quantifies the intensity of disabilities caused by the brain stroke. Said scale was applied at the time the patient entered the study (day zero) and 2, 6 and 30 days after the brain stroke. A stroke is considered as moderately severe or severe, when the NIH rated a value higher than seven. The NIH scale results in the two groups of patients were statistically analyzed with analysis of variance analysis (ANOVA) using as co-variables the NIH scale at the admittance day (day zero), as well as the gender, age, blood pressure and other important clinical variables for the patient's performance. The results in patients with acute thrombo-embolic brain stroke, are shown in FIG. 3, which presents the scores of the neurological scale (NIH) as a function of time (in days) after administering dapsone or the placebo. The results are expressed as the average of 15 patients per group +/−the standard error.

[4] = Stability of dapsone oral suspension; format: physicochemical; conditions: refrigeration at 4° C.

SMILES: Nc1ccc(S(=O)(=O)c2ccc(N)cc2)cc1 [dapsone]
- reduction in the severity of the neurological symptoms in comparison with the control group [1]: 50%
- recovery from the ischemic lesion in the neurological test compared to the control group ([1]; 9.375 and 12.5 mg/kg ip, evaluated each 24 hours for 96 hours, p<0.05): recovered better from the ischemic lesion, significantly
- reduction of ischemic lesion volume in comparison with the control group ([2]; 9.375 mg/kg ip 30 minutes after occlusion): 93%
- reduction of ischemic lesion volume in comparison with the control group ([2]; 12.5 mg/kg ip 30 minutes after occlusion, 12.5 mg/kg): 91% and 90%
- efficacy to reduce the volume of brain damage produced by the stroke ([2]; dose of 9.325 mg/kg): 93%
- side effects ([3]; for the dose used): No side effects
- effective dose ([3]; model not stated, printed after the patient result): 0.013 mmol/kg
- clinical improvement (in words) ([3]; patients, 200 mg orally): significant clinical improvement
- clinical improvement of neurological symptoms (NIH scale), in average ([3]; patients, single 200 mg oral dose within first twelve hours after stroke): 67%
- stability of the suspension [4]: stable in refrigeration at 4° C., for up to one month
